What was measured:
[1] = target: T1, GABAA receptor, benzodiazepine (BZD) binding site (rat cortical membrane); test: radioligand saturation binding, centrifugation separation
T1 construct: native receptor in cortical membrane of male Sprague-Dawley rats

[2] = target: T1, GABAA receptor, benzodiazepine (BZD) binding site (rat cortical membrane); test: [3H]-flumazenil competition binding
[3] = target: T1, GABAA receptor, benzodiazepine (BZD) binding site (rat cortical membrane); test: [3H]-flumazenil competition binding; […] used for nonspecific binding

CCOC(=O)c1ncn2c1CN(C)C(=O)c1cc(F)ccc1-2 [[3H]-flumazenil]
Kd [1]: 1.35 ± 0.316 nM

Cc1cc(=O)n2nc(-c3ccccc3)oc2n1 [compound A, 2-phenyl-5-oxo-7-methyl-1,3,4-oxadiazolo[a,2,3]-pyrimidine]
Ki [2]: 1.9 nM

CN1C(=O)CN=C(c2ccccc2)c2cc(Cl)ccc21 [diazepam]
Ki [3]: 1.53 nM

Source: paper PMC3977056, “Optimum Conditions of Radioligand Receptor Binding Assay of Ligands of Benzodiazepine Receptors” (Iranian Journal of Pharmaceutical Research : IJPR, 2014)
